In this test the test system is influenza virus [インフルエンザウイルス]. The test is described as follows: microbe, parasite or virus in culture. The note with it: unidentified influenza virus, 72 h, read-out: 50% influenza-infected cell death inhibition concentration (EC50). The class given is cell-based.

As for `O=C1c2c(O)c(=O)cnn2N(C2c3ccccc3SCc3c2ccc(F)c3F)C2COCCN12` (single isomer, unassigned) [化合物I−1], the EC50 amounted to 18.2 nM.

As for `CCN1CN(C2c3ccccc3CCc3ccccc32)n2ncc(=O)c(O)c2C1=O` [化合物I−2], the EC50 was found to be 207 nM.

The values above are taken from patent JP2019059697A, “置換された多環性ピリダジン誘導体およびそのプロドラッグ” (priority 2017, dated 2019).
